Measured values taken from patent US20090131354A1, “miR-126 REGULATED GENES AND PATHWAYS AS TARGETS FOR THERAPEUTIC INTERVENTION” (priority 2007, published 2009).

Experiments:
[1] = system: PPC-1 prostate cancer cells; assay: Long-term growth curve with repeated electroporation, PPC-1; format: cell-based, human
Source text: (§1) To evaluate the therapeutic activity of hsa-miR-126 over an extended period of time, we conducted growth curve experiments in the presence of miRNA for up to 21 days. Since in vitro transfections of naked interfering RNAs, such as synthetic miRNA, are transient by nature and compromised by the dilution of the oligonucleotide during ongoing cell divisions, we administered miRNA at multiple time points (Bartlett and Davis, 2006; Bartlett and Davis, 2007). To accommodate miRNA delivery into a large quantity of cells, we employed the electroporation method to delivery hsa-miR-126 or negative control miRNA into PPC-1, PC3 and Du145 human prostate cancer cells. Briefly, 1×10^6 PPC-1 or PC3 cells, and 0.5×10^6 Du145 cells were electroporated with 1.6 μM hsa-miR-126 or negative control using the BioRad Gene Pulser Xcell™ instrument (BioRad Laboratories Inc., Hercules, Calif., USA), seeded and propagated in regular growth medium. Experiments with PC3 and Du145 cells were carried out in triplicates. When the control cells reached confluence (days 4 and 11 for PPC-1; days 7 and 14 for PC3 and Du145), cells were harvested, counted and electroporated again with the respective miRNAs. […] The population doubling was calculated from these electroporation events using the formula PD=ln(Nf/N0)/ln2, and cell counts were extrapolated and plotted on a linear scale (FIGS. 10-12). […]

[2] = system: PC3 prostate cancer cells; assay: Long-term growth curve with repeated electroporation, PC3; format: cell-based, human
Source text: as §1

[3] = system: established H460 lung tumors; assay: Established H460 lung tumors, intratumoral injections; format: in vivo, NOD/SCID mice; conditions: H460, 6.25 μg intratumoral with siPORT amine on days 11, 14, 17
Source text: Delivery of hsa-miR-126 into human lung cancer cells prior to implantation into the animal inhibited the formation of lung tumor xenografts. […] To explore this possibility, each 3×10^6 human H460 non-small lung cancer cells were mixed with BD Matrigel™, (BD Biosciences; San Jose, Calif., USA; cat. no. 356237) in a 1:1 ratio and subcutaneously injected into the lower back of 23 NOD/SCID mice (Charles River Laboratories, Inc.; Wilmington, Mass., USA). Once animals developed palpable tumors (day 11 post xenograft implantation), a group of six animals received intratumoral injections of each 6.25 μg hsa-miR-126 (Dharmacon, Inc., Lafayette, Colo., USA) formulated with the lipid-based siPORT™ amine delivery agent (Ambion, Austin, Tex.; cat. no. AM4502) on days 11, 14 and 17. A control group of six animals received intratumoral injections of each 6.25 μg negative control miRNA (NC; Dharmacon, Lafayette, Colo.), following the same injection schedule that was used for hsa-miR-126. Given an average mouse weight of 20 g, this dose equals 0.3125 mg/kg. […] Caliper measurements were taken every 1-2 days, and tumor volumes were calculated using the formula, Volume=length×width×width/2, in which the length is greater than the width.

[4] = system: Du145 prostate cancer cells; assay: Long-term growth curve with repeated electroporation, Du145; format: cell-based, human
Source text: as §1

[5] = system: HCC2935 lung cancer cells; assay: Alamar Blue proliferation assay, HCC2935; format: cell-based, human; conditions: HCC2935, 30 nM, 72 h, relative to NC miRNA (100%)
Source text: The inventors assessed the therapeutic effect of hsa-miR-126 for lung cancer by using 11 individual lung cancer cell lines. To measure cellular proliferation of lung cancer cells, the following non-small cell lung cancer (NSCLC) cells were used: cells derived from lung adenocarcinoma (A549, H1299, H522, H838, Calu-3, HCC827, HCC2935), cells derived from lung squamous cell carcinoma (H520, H226), cells derived from lung bronchioalveolar carcinoma (H1650), and cells derived from lung large cell carcinoma (H460). Synthetic hsa-miR-126 (Pre-miR™-hsa-miR-126, Ambion cat. no. AM17100) or negative control (NC) miRNA (Pre-miR™ microRNA Precursor Molecule-Negative Control #2; Ambion cat. no. AM17111) was delivered via lipid-based transfection into A549, H1299, H522, H838, Calu-3, HCC827, HCC2935, H520, H1650, and H460 cells, and via electroporation into H226 cells.
Lipid-based reverse transfections were carried out in triplicate according to a published protocol (Ovcharenko et al., 2005) and the following parameters: Cells (5,000-12,000 per 96 well), 0.1-0.2 μl Lipofectamine™ 2000 (cat. no. 11668-019, Invitrogen Corp., Carlsbad, Calif., USA) in 20 μl OptiMEM (Invitrogen), 30 nM final concentration of miRNA in 100 μl. […]

hsa-miR-126 (UCGUACCGUGAGUAAUAAUGC; synthetic pre-miR form, further chemistry not given here) [Synthetic hsa-miR-126 (Pre-miR™-hsa-miR-126, Ambion cat. no. AM17100)]
inhibition of cell growth ([1]; PPC-1, day 18, 1.6 μM repeated electroporation, relative to control cells (100%)): 91.3% | remaining cells ([1]; PPC-1, day 18, relative to control cells (100%)): 8.7% | inhibition of cell growth ([2]; PC3, day 21, 1.6 μM repeated electroporation, relative to control cells (100%)): 90.7% | remaining cells ([2]; PC3, day 21, relative to control cells (100%)): 9.3% | growth of established tumors [3]: robustly inhibited growth of established H460 lung tumors | inhibition of cell growth ([4]; Du145, day 20, 1.6 μM repeated electroporation, relative to control cells (100%)): 83.9% | remaining cells ([4]; Du145, day 20, relative to control cells (100%)): 16.1% | % proliferation [5]: 66.89%
